This is an account of results in paper PMC9606955, “In Vitro Activity of Essential Oils Distilled from Colombian Plants against Candida auris and Other Candida Species with Different Antifungal Susceptibility Profiles” (Molecules, 2022).

As usually defined, the MIC is the smallest concentration in the dilution series that meets the test's criterion for growth inhibition. By CC50 is commonly meant the concentration giving 50% cytotoxicity. Low readings indicate harm at low concentration, high ones better tolerance by the cells.

Each structure is given as a SMILES string. Converted amounts (≈) assume the structure as drawn. “Also recorded” adds a separate entry of the source.

Series [1] concerns C. metapsilosis MUM 15.12. Description: MIC, CLSI M27 broth microdilution. It counts as cell-based, Candida metapsilosis. Conditions: Lodderomyces metapsilosis, MUM15.12; C. metapsilosis MUM 17.13 (Table 3); EOs and terpenes; 24 h; top concentration 256 µg/mL; read-out: GM MIC. The text has this: (§1) The fungal strains used in this study were C. albicans ATCC 10231, C. albicans ATCC 64550, C. parapsilosis ATCC 22019, C. tropicalis ATCC 750, C. tropicalis ATCC 200956 (resistant to azoles and AMB), C. glabrata LMDM 34 (resistant to echinocandins), C. metapsilosis MUM 15.12, C. orthopsilosis MUM 17.13, C. lusitaniae MUM 17.08, C. krusei ATCC 6258 (Issatchenkia orientalis ATCC 6258), and C. auris CDC B11903. Additionally, nine clinical isolates were included: C. parapsilosis Synlab 406 (FLC-resistant) and eight C. auris isolates identified by MALDI-TOF MS (Bruker Daltonics, Bremen, Germany) according to Zhao et al.. These yeasts were cultured on Sabouraud Dextrose Agar (SDA; Sigma-Aldrich, St. Louis, MO, USA) for 24 h at 35 °C.
(§2) Antifungal susceptibility testing was performed according to Clinical and Laboratory Standards Institute M27, 4th Edition (CLSI standard M27, 4th Edition). Some modifications were applied for evaluation of the antifungal activity of EOs and terpenes. Initially, a screening was carried out to determine the antifungal activity of the EOs and of commercial terpenes. Stock concentrations of EOs and terpenes were prepared at 512 µg/mL and an inoculum of 2.5 × 10^3 CFU/mL of each yeast was prepared in RPMI 1640-MOPS (Sigma- Aldrich St. Louis, MO, USA). Thereafter, 100 µL of each stock solution of EOs or terpenes was dispensed in 96-well microdilution plates (Corning®, Costar®, NY, USA) and 100 µL of each yeast inoculum was added. […] Microdilution plates were incubated at 35 °C and, after 24 h, the presence or absence of growth was visually checked using a manual mirror viewer and then compared with the amount of growth in the control (no EO or terpene). Compounds able to inhibit yeast growth were tested to determine the minimal inhibitory concentration (MIC) as follows: 100 µL of 10 two-fold dilutions of the EOs or commercial terpenes was dispensed in 96-well microplates and the yeast inoculum was added. Final concentrations of the EOs or terpenes ranged from 0.5 µg/mL to 256 µg/mL. Microdilution plates were incubated at 35 °C for 24 h. MICs were visually determined at the lowest concentration that produced visual inhibition compared to the growth control. The assays were performed at least three times in duplicate on different days. The results were expressed as geometric means (GM) and ranges. As an antifungal susceptibility testing control, the activity of ITC and AMB against the reference strains C. krusei ATCC 6258 and C. parapsilosis ATCC 22019 was evaluated in all experiments following the CLSI standard M27, 4th Edition. It was mandatory that the MIC values remained in the accepted range.

The subject of series [2] is C. auris CDC B11903. Description: MIC, CLSI M27 broth microdilution. The series is classed as cell-based, Candida auris. Conditions: Candidozyma auris, CDCB11903; C. auris CDC B11903; EOs and terpenes; 24 h; top concentration 256 µg/mL; read-out: GM MIC.
Source text: as §1, §2
For orientation: In broth dilution the organism is exposed to a series of concentrations in liquid medium.

In the next series the test system is C. auris Ca 46. Description: MIC, CLSI M27 broth microdilution. The series is classed as cell-based, Candida auris. The conditions noted are these: Candidozyma auris, CA46; C. auris Ca 46; EOs and terpenes; 24 h; top concentration 256 µg/mL; read-out: GM MIC.
Source text: as §1, §2

The subject of a further series is C. auris Ca 17. Briefly: MIC, CLSI M27 broth microdilution. It counts as cell-based, Candida auris. The conditions noted are these: Candidozyma auris, CA17; C. auris Ca 17; EOs and terpenes; 24 h; top concentration 256 µg/mL; read-out: GM MIC.
Source text: as §1, §2

A further series relates to C. auris Ca 13. Description: MIC, CLSI M27 broth microdilution. It counts as cell-based, Candida auris. Conditions: Candidozyma auris, CA13; C. auris Ca 13; EOs and terpenes; 24 h; top concentration 256 µg/mL; read-out: GM MIC.
Source text: as §1, §2

The test system of the next series is C. auris Ca 45. Briefly: MIC, CLSI M27 broth microdilution. It counts as cell-based, Candida auris. Conditions: Candidozyma auris, CA45; C. auris Ca 45; EOs and terpenes; 24 h; top concentration 256 µg/mL; read-out: GM MIC.
Source text: as §1, §2

The test system of the next series is C. auris Ca 41. Description: MIC, CLSI M27 broth microdilution. The series is classed as cell-based, Candida auris. Conditions: Candidozyma auris, CA41; C. auris Ca 41; EOs and terpenes; 24 h; top concentration 256 µg/mL; read-out: GM MIC.
Source text: as §1, §2

The next series relates to C. auris Ca 32. Description: MIC, CLSI M27 broth microdilution. It counts as cell-based, Candida auris. The conditions noted are these: Candidozyma auris, CA32; C. auris Ca 32; EOs and terpenes; 24 h; top concentration 256 µg/mL; read-out: GM MIC.
Source text: as §1, §2

The next series concerns C. auris Ca 9. Description: MIC, CLSI M27 broth microdilution. Conditions: Candidozyma auris, CA9; C. auris Ca 9; EOs and terpenes; 24 h; top concentration 256 µg/mL; read-out: GM MIC. It counts as cell-based, Candida auris.
Source text: as §1, §2

For the next series, the system named is C. auris Ca 1. Description: MIC, CLSI M27 broth microdilution. The conditions noted are these: C. auris Ca 1, EOs and terpenes. The series is classed as cell-based, Candida auris.
Source text: as §1, §2

Series [3] concerns C. auris CDC B11903. Briefly: Time–kill assay. It counts as cell-based, Candida auris. As for the experimental part: (§3) Time–kill assays with the L. origanoides (thymol + p-cymene) chemotype (Code 0018) EO, thymol, FLC, and AMB against C. albicans ATCC 10231, C. tropicalis ATCC 200956, and C. auris CDC B11903 were performed according to the protocol published by Klebser et al. with some modifications. […] Absorbance at λ = 490 nm was measured every 2 h with a Multiskan SkyHigh Microplate Spectrophotometer. AMB and FLC were included as fungicidal and fungistatic control drugs, respectively.

In another series the test system is C. auris. The arrangement: method as in PMID 31980703. The conditions noted are these: cited from earlier work.
Another series in a line: Cytotoxicity, MTT assay. The conditions noted are these: human, HaCaT keratinocyte cells.
Series [4] relates to C. tropicalis ATCC 200956. Briefly: MIC, CLSI M27 broth microdilution. It counts as cell-based, Candida tropicalis. The conditions noted are these: C. tropicalis ATCC 200956, EOs and terpenes; for MIC: Candida tropicalis, ATCC200956, 24 h, top concentration 256 µg/mL, read-out: GM MIC.
Source text: as §1, §2

In another series the test system is C. albicans ATCC 10231. Description: Time–kill assay. The series is classed as cell-based, Candida albicans. Conditions: 1X and 2X MIC, 24 h. On the procedure: as §3
For a further series, the system named is C. krusei ATCC 6258. Description: MIC, CLSI M27 broth microdilution. It counts as cell-based, Candida krusei. Conditions: C. krusei ATCC 6258, EOs and terpenes; for MIC: Pichia kudriavzevii, ATCC6258, 24 h, top concentration 256 µg/mL, read-out: GM MIC.
Source text: as §1, §2

Series [5] has as its system C. tropicalis ATCC 200956. Briefly: Time–kill assay. The conditions noted are these: 1X and 2X MIC, 24 h. The series is classed as cell-based, Candida tropicalis. As for the experimental part:
as §3

Series [6] has as its system C. parapsilosis Synlab 406. Description: MIC, CLSI M27 broth microdilution. The series is classed as cell-based, Candida parapsilosis. Conditions: Lodderomyces parapsilosis, SYNLAB406; C. parapsilosis Synlab 406; EOs and terpenes; 24 h; top concentration 256 µg/mL; read-out: GM MIC.
Source text: as §1, §2

A further series concerns C. lusitaniae MUM 17.08. Briefly: MIC, CLSI M27 broth microdilution. It counts as cell-based, Candida lusitaniae. The conditions noted are these: C. lusitaniae MUM 17.08, EOs and terpenes; for MIC: Clavispora lusitaniae, MUM17.08, 24 h, top concentration 256 µg/mL, read-out: GM MIC.
Source text: as §1, §2

In series [7] the test system is C. orthopsilosis MUM 17.13. Description: MIC, CLSI M27 broth microdilution. The series is classed as cell-based, Candida orthopsilosis. The conditions noted are these: Lodderomyces orthopsilosis, MUM17.13; C. orthopsilosis MUM 15.12 (Table 3); EOs and terpenes; 24 h; top concentration 256 µg/mL; read-out: GM MIC.
Source text: as §1, §2

The next series has as its system Candida spp. Briefly: Screening of antifungal activity at 256 µg/mL against twenty strains. The conditions noted are these: screening at 256 µg/mL. It counts as cell-based.
Source text: as §1
Antifungal susceptibility testing was performed according to Clinical and Laboratory Standards Institute M27, 4th Edition (CLSI standard M27, 4th Edition). Some modifications were applied for evaluation of the antifungal activity of EOs and terpenes. Initially, a screening was carried out to determine the antifungal activity of the EOs and of commercial terpenes. Stock concentrations of EOs and terpenes were prepared at 512 µg/mL and an inoculum of 2.5 × 10^3 CFU/mL of each yeast was prepared in RPMI 1640-MOPS (Sigma- Aldrich St. Louis, MO, USA). Thereafter, 100 µL of each stock solution of EOs or terpenes was dispensed in 96-well microdilution plates (Corning®, Costar®, NY, USA) and 100 µL of each yeast inoculum was added. […] MICs were visually determined at the lowest concentration that produced visual inhibition compared to the growth control. […] The results were expressed as geometric means (GM) and ranges. As an antifungal susceptibility testing control, the activity of ITC and AMB against the reference strains C. krusei ATCC 6258 and C. parapsilosis ATCC 22019 was evaluated in all experiments following the CLSI standard M27, 4th Edition. […]

Experimental for Cytotoxicity, MTT assay: Cells were cultured in Dulbecco’s Modified Eagle Medium (DMEM; Sigma-Aldrich, St. Louis, MO, USA) supplemented with 10% fetal bovine serum (Invitrogen, Carlsbad, CA, USA), 1% penicillin, streptomycin, and neomycin (Invitrogen, Carlsbad, CA, USA), and 1% L-glutamine (Invitrogen, Carlsbad, CA, USA) at 37 °C in a humidified atmosphere of 5% CO2. […] Afterwards, the culture medium was removed and 3-(4.5-dimethylthiazol-2-yl)-2.5-diphenyltetrazolium bromide (MTT) (Sigma-Aldrich, St. Louis, MO, USA) at 5 mg/mL was added at 37 °C for 2 h. Subsequently, DMSO was added to dissolve the formazan crystals. Finally, the absorbances were measured with a Multiskan SkyHigh Microplate Spectrophotometer (Thermo Fisher Scientific, Waltham, MA, USA) at λ = 570 nm. The CC50 values were obtained by linear regression analysis with concentration–response curves, which were performed with absorbance data using GraphPad Prism software (Prism 9.3.0, San Diego, CA, USA). The assays were conducted at two separate times in triplicate. The data were expressed as means.

Take `Cc1ccc(C(C)C)c(O)c1` [Thymol, thymol]: the MIC stood at 128 µg/mL (≈ 852 µM) in [1]; 64 µg/mL (≈ 426 µM) in the series with C. auris CDC B11903 [2]; 64 µg/mL (≈ 426 µM) in the series on C. auris Ca 46; 64 µg/mL (≈ 426 µM) with C. auris Ca 17; 128 µg/mL (≈ 852 µM) in the series on C. auris Ca 13; 64 µg/mL (≈ 426 µM) in the series on C. auris Ca 45. For the same molecule, the MIC with C. auris Ca 41 came to 64 µg/mL (≈ 426 µM); in the series with C. auris Ca 32 it was 64 µg/mL (≈ 426 µM); in the series with C. auris Ca 9 it was 128 µg/mL (≈ 852 µM); with C. auris Ca 1 (Candidozyma auris, CA1, 24 h, top concentration 256 µg/mL, read-out: GM MIC), 181 µg/mL (≈ 1200 µM); in series [4], 90.5 µg/mL (≈ 602 µM); in the series on C. krusei ATCC 6258 it was 181 µg/mL (≈ 1200 µM). Also, the MIC in series [6] stood at 64 µg/mL (≈ 426 µM); in the series with C. lusitaniae MUM 17.08 it was 90.5 µg/mL (≈ 602 µM); in series [7], 128 µg/mL (≈ 852 µM). Also, the “Range MIC” value in the series with C. auris Ca 1 was 128 to 256 µg/mL; in [4], 64 to 128 µg/mL; in the series with C. krusei ATCC 6258 it was 128 to 256 µg/mL; with C. lusitaniae MUM 17.08, 64 to 128 µg/mL. The “effect on growth in time–kill assay” value in the series on C. auris CDC B11903 [3] (0.5, 1 and 2X MIC, 24 h) is “not affected; also recorded: did not show fungicidal activity”. For the same molecule, in the series with C. auris CDC B11903 [3] (2X MIC), the “lag-phase in time–kill assay” value is “extended lag-phase”. Also, the MIC Range in the series on C. auris was 156 to 625 µg/mL. Moreover, the CC50 at 24 h in the series “Cytotoxicity, MTT assay” amounted to 428 µg/mL (≈ 2850 µM). Moreover, the “effect in time–kill assay” value (in the series on C. albicans ATCC 10231; in [5]) was “fungicidal” in each case. Also, the “antifungal activity in screening” value in the series with Candida spp. was “active against all tested Candida spp”.

As to `Cc1ccc(C(C)C)cc1` [p-Cymene, p-cymene], the MIC (in [1]; with C. auris CDC B11903 [2]; in the series with C. auris Ca 46; in the series with C. auris Ca 17; in the series on C. auris Ca 13; in the series with C. auris Ca 45) was 256 µg/mL (≈ 1910 µM) throughout. Also, the MIC stood at 256 µg/mL (≈ 1910 µM) in the series with C. auris Ca 41; 128 µg/mL (≈ 954 µM) in the series with C. auris Ca 32; 256 µg/mL (≈ 1910 µM) with C. auris Ca 9; 181 µg/mL (≈ 1350 µM) in series [4]; 181 µg/mL (≈ 1350 µM) in the series on C. krusei ATCC 6258; 256 µg/mL (≈ 1910 µM) in [6]. In addition, the MIC (in the series with C. lusitaniae MUM 17.08; in [7]) was 256 µg/mL (≈ 1910 µM) throughout. Further, the 50% cytotoxic concentration (CC50) at 24 h in the series “Cytotoxicity, MTT assay” was 831 µg/mL (≈ 6190 µM). Also, the “Range MIC” value (in series [4]; in the series on C. krusei ATCC 6258) was 128 to 256 µg/mL in each case.
